Measured values: US20240174657A1, “SELECTIVE ANGIOTENSIN II RECEPTOR LIGANDS” (priority 2021, published 2024)

Key:
CYP3A4 = molecular target: T1, CYP3A4 (Homo sapiens, UniProt P08684); test: CYP inhibition in human liver microsomes, midazolam substrate; type: in vitro ADME; details: probe midazolam, read-out: CYP3A4 midazolam Inh %
T1 construct: using isoform-specific substrates incubated with human liver microsomes; tissue Eurofins protocol ITEMG232; host or cells: human liver microsomes

CYP2C8 = molecular target: T2, CYP2C8 (Homo sapiens, UniProt P10632); test: CYP inhibition in human liver microsomes, paclitaxel and amodiaquine substrates; type: in vitro ADME; details: probe paclitaxel and amodiaquine, read-out: CYP2C8 Inh %
T2 construct: using isoform-specific substrates incubated with human liver microsomes; tissue Eurofins protocol ITEMG232; host or cells: human liver microsomes
T2 sequence (P10632 1-490): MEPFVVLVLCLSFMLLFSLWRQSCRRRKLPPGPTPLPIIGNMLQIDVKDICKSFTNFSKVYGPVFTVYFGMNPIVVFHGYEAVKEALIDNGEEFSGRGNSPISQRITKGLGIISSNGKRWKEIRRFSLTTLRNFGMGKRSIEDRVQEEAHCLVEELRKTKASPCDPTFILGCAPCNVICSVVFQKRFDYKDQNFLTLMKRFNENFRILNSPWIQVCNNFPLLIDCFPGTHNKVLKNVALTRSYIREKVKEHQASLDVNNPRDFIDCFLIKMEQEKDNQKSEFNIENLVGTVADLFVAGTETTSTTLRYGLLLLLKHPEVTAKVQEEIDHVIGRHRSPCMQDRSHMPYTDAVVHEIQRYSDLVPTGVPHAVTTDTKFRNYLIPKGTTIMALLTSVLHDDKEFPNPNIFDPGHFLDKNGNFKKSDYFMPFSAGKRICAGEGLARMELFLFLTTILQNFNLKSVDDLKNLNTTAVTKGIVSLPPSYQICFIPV

CYP2D6 = molecular target: T3, CYP2D6 (Homo sapiens, UniProt P10635); test: CYP inhibition in human liver microsomes, dextromethorphan substrate; type: in vitro ADME; details: probe dextromethorphan, read-out: CYP2D6 Inh %
T3 construct: tissue Eurofins protocol ITEMG232; host or cells: human liver microsomes
T3 sequence (P10635 whole entry): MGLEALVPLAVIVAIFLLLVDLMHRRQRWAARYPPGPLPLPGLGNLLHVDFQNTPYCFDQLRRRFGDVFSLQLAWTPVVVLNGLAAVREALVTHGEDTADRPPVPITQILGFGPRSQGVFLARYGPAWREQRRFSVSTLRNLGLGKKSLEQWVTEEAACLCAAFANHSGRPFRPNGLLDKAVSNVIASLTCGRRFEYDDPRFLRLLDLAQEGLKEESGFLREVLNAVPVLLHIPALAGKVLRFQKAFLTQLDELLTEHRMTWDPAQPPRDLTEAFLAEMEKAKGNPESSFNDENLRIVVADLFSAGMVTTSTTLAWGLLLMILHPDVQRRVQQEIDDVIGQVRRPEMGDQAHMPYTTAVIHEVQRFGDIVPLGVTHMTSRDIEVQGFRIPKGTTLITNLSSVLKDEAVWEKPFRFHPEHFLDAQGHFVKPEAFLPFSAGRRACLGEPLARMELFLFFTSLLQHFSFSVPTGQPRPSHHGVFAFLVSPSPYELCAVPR

CYP2C19 = molecular target: T4, CYP2C19 (Homo sapiens, UniProt P33261); test: CYP inhibition in human liver microsomes, omeprazole substrate; type: in vitro ADME; details: probe omeprazole, read-out: CYP2C19 Inh %
T4 construct: using isoform-specific substrates incubated with human liver microsomes; tissue Eurofins protocol ITEMG232; host or cells: human liver microsomes
T4 sequence (P33261 whole entry, canonical isoform): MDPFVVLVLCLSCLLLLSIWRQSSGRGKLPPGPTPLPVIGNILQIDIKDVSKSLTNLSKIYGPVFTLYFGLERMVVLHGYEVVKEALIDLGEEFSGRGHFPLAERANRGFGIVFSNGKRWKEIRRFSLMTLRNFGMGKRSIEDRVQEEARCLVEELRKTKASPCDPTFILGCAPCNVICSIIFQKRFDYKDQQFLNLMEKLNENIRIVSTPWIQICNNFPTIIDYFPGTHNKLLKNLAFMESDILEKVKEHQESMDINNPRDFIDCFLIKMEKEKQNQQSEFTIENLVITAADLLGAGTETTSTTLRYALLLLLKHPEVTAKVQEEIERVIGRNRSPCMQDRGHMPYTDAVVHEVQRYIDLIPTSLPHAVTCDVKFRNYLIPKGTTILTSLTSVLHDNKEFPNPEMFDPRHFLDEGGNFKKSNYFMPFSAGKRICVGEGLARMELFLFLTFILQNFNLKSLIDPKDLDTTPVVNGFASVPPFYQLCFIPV

[1] = molecular target: T5, human recombinant AT1 receptor (Homo sapiens, UniProt P30556); test: Binding to AT1 receptor, radiometric scintillation assay (Eurofins ITEM24)
T5 construct: Eurofins protocol ITEM24
T5 sequence (P30556 1-359): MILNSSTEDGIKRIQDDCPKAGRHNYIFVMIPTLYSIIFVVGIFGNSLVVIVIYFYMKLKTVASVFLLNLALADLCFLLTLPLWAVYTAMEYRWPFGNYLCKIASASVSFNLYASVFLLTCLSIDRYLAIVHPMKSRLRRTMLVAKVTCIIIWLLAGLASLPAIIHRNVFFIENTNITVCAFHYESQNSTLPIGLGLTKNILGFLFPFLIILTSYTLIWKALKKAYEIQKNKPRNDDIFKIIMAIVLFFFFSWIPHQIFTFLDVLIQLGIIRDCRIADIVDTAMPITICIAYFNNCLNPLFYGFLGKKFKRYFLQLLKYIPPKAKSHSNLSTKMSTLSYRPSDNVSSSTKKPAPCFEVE

[2] = Metabolic stability in pooled human liver microsomes; type: in vitro ADME; details: human liver microsomes 0.5 mg/mL, 1 uM test compound, 37° C.; for T1/2, + NaDPH: with 1 mM NADPH; for half-life at 1 uM: pooled human liver microsomes, without NADPH, read-out: T1/2, no NaDPH
Protocol: Pooled human liver microsomes in PBS at a concentration of 0.5 mg/mL was incubated with or without 1 mM NADPH for 70 min at 37° C. Test compound was added after 10 minutes to a final concentration of 1 uM. Samples were withdrawn at 0, 5, 15 and 60 minutes and added to test tubes containing acetonitrile, to stop the reaction, and with terfenadine, used as internal standard. After centrifugation at 10 000×g for 5 minutes the supernatant was diluted 1:1 with 1% formic acid. Samples were separated on a reverse phase column and detected by triple quadrupole MSMS (Agilant model 6540). The concentration of the parent compound at the different time points was measured with an external standard curve using terfenadine as internal standard and the initial metabolic rate in the presence or absence of NADPH calculated.

CYP2B6 = molecular target: T6, CYP2B6 (Homo sapiens, UniProt P20813); test: CYP inhibition in human liver microsomes, bupropion substrate; type: in vitro ADME; details: probe bupropion, read-out: CYP2B6 Inh %
T6 construct: using isoform-specific substrates incubated with human liver microsomes; tissue Eurofins protocol ITEMG232; host or cells: human liver microsomes
T6 sequence (P20813 1-491): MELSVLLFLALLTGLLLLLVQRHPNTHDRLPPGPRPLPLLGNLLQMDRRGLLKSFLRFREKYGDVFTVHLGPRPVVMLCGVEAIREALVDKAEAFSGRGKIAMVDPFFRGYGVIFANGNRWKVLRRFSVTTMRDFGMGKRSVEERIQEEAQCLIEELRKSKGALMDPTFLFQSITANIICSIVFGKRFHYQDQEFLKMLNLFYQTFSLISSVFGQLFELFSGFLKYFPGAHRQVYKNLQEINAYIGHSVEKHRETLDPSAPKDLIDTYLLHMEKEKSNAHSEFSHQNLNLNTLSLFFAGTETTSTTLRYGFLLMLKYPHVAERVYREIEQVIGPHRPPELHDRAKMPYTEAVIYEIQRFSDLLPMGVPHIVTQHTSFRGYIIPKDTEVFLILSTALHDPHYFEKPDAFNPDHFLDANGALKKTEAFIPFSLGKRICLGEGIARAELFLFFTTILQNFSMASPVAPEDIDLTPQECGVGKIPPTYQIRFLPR

[3] = molecular target: T7, human recombinant AT2 receptor (Homo sapiens, UniProt P50052); test: biochemical; type: binding; details: ligand 125I CGP 42112A; for IC50: test concentrations 1, 10, 100 and 1000 nM, C21* = mean of runs, read-out: AT2 GraFit IC50
T7 sequence (P50052 1-363): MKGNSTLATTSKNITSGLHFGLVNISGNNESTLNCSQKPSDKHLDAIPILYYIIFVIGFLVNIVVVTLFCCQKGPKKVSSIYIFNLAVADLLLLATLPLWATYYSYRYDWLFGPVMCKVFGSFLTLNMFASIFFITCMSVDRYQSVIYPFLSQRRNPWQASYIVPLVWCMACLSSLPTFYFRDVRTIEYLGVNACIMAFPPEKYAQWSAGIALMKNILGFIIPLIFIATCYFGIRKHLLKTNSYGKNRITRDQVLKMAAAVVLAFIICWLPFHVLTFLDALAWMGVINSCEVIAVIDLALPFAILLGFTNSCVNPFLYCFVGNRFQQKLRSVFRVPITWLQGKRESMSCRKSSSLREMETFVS

CYP1A = molecular target: T8, CYP1A (Homo sapiens, UniProt P05177); test: CYP inhibition in human liver microsomes, phenacetin substrate; type: in vitro ADME; details: probe phenacetin, read-out: CYP1A Inh %
T8 construct: using isoform-specific substrates incubated with human liver microsomes; tissue Eurofins protocol ITEMG232; host or cells: human liver microsomes
T8 sequence (P05177 whole entry, canonical isoform): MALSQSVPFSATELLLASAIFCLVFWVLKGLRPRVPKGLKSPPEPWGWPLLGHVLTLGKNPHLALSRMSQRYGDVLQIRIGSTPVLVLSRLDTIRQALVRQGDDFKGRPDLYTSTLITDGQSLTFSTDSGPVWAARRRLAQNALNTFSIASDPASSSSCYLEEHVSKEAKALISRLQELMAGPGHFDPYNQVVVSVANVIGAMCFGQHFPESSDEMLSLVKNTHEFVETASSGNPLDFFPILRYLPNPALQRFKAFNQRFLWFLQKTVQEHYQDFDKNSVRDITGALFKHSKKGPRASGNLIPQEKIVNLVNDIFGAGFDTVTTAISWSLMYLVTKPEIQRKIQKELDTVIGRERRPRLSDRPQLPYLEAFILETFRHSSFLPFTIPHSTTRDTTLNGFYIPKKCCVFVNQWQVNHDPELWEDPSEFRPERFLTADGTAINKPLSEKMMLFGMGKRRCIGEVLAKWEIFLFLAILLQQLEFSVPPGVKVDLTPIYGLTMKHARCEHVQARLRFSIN

CYP3A4&5 = test: CYP inhibition in human liver microsomes, testosterone substrate; type: in vitro ADME; details: probe testosterone, read-out: CYP3A4&5 testosterone Inh %
CYP2C9 = molecular target: T9, CYP2C9 (Homo sapiens, UniProt P11712); test: CYP inhibition in human liver microsomes, diclofenac substrate; type: in vitro ADME; details: probe diclofenac, read-out: CYP2C9 Inh %
T9 construct: using isoform-specific substrates incubated with human liver microsomes; tissue Eurofins protocol ITEMG232; host or cells: human liver microsomes
T9 sequence (P11712 whole entry, canonical isoform): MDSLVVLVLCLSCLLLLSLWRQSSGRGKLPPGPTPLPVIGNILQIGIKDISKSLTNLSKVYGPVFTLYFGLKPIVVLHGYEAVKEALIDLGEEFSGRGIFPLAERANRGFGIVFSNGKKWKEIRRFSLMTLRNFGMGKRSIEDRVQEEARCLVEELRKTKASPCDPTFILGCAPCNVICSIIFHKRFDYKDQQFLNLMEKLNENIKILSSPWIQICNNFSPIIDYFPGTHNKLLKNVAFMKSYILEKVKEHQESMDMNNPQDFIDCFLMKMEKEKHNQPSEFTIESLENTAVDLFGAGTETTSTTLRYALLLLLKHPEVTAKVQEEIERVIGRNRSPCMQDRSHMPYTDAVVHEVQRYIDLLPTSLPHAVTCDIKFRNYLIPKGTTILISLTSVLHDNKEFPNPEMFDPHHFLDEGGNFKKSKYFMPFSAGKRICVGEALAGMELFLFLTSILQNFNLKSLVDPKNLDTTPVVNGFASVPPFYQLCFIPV

T1 sequence (P08684 whole entry, canonical isoform): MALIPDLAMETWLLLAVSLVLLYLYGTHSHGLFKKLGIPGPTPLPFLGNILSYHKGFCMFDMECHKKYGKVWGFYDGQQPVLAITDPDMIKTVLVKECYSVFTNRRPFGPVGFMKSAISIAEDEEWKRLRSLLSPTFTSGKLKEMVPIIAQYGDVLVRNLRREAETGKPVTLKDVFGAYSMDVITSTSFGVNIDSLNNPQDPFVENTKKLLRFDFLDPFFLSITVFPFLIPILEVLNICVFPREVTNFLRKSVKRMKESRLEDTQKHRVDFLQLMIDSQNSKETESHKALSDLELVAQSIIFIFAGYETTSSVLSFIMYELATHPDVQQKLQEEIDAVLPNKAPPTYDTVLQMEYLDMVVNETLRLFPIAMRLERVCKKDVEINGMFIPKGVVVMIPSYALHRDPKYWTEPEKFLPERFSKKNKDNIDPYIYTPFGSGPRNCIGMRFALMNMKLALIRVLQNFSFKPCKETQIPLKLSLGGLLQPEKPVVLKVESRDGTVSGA

inhibition at 10 µM (CYP3A4) [%] | inhibition at 10 µM (CYP2C8) [%] | inhibition at 10 µM (CYP2D6) [%] | inhibition at 10 µM (CYP2C19) [%] | IC50 [1] [nM] | T1/2, + NaDPH [2] [h] | half-life at 1 uM [2] [h] | inhibition at 10 µM (CYP2B6) [%] | IC50 [3] [nM] | inhibition at 10 µM (CYP1A) [%] | inhibition at 10 µM (CYP3A4&5) [%] | inhibition at 10 µM (CYP2C9) [%] | Ki ([3]; seven-point dose-response curve, read-out: AT2R Ki) [nM] | Compound
13 | 73.8 | 10.1 | 14.7 | 2100 | >1 | > 1 | 8.2 | 0.64 | 3.5 | 4.5 | 11.5 | – | CC(C)Cc1cc(-c2ccc(Cn3ccnc3C(C)(C)C)c(F)c2)c(S(=O)(=O)NC(=O)NCCO)s1 [Example 6, 1-[[3-[4-[(2-tert-Butylimidazol-1-yl)methyl]-3-fluoro-phenyl]-5-isobutyl-2-thienyl]sulfonyl]-3-(2-hydroxyethyl)urea]
– | – | – | – | 8400 | >1 | > 1 | – | 1.9 | – | – | – | 0.95 | CC(C)Cc1cc(-c2ccc(Cn3ccnc3C(C)C)c(F)c2)c(S(=O)(=O)NC(=O)NCCO)s1 [Example 10, 1-[[3-[3-Fluoro-4-[(2-isopropylimidazol-1-yl)methyl]phenyl]-5-isobutyl-2-thienyl]sulfonyl]-3-(2-hydroxyethyl)urea]
23.7 | 2.3 | 8 | 17.7 | 9500 | >1 | > 1 | 14 | 2.5 | 11.8 | 22.3 | 26.8 | – | CCc1nccn1Cc1ccc(-c2cc(CC(C)C)sc2S(=O)(=O)NC(=O)NCCO)cc1F [Example 8]
7.7 | 69.8 | 3.9 | 27.4 | 1900 | >1 | > 1 | 17.4 | 0.95 | 2.7 | 2.8 | 9.9 | – | CC(C)Cc1cc(-c2ccc(Cn3ccnc3C(C)(C)C)c(F)c2)c(S(=O)(=O)NC(=O)NCC(C)(C)O)s1 [Example 7, 1-[[3-[4-[(2-tert-Butylimidazol-1-yl)methyl]-3-fluoro-phenyl]-5-isobutyl-2-thienyl]sulfonyl]-3-(2-hydroxy-2-methyl-propyl)urea]

More lines, now with the values behind:

Compound | inhibition at 10 µM (CYP3A4) [%] | inhibition at 10 µM (CYP2C8) [%] | inhibition at 10 µM (CYP2D6) [%] | inhibition at 10 µM (CYP2C19) [%] | IC50 [1] [nM] | T1/2, + NaDPH [2] [h] | half-life at 1 uM [2] [h] | inhibition at 10 µM (CYP2B6) [%] | IC50 [3] [nM] | inhibition at 10 µM (CYP1A) [%] | inhibition at 10 µM (CYP3A4&5) [%] | inhibition at 10 µM (CYP2C9) [%] | Ki ([3]; seven-point dose-response curve, read-out: AT2R Ki) [nM]
Cc1nccn1Cc1ccc(-c2cc(CC(C)C)sc2S(=O)(=O)NC(=O)NCC(C)(C)O)cc1F [Example 3, 1-[[3-[3-Fluoro-4-[(2-methylimidazol-1-yl)methyl]phenyl]-5-isobutyl-2-thienyl]sulfonyl]-3-(2-hydroxy-2-methyl-propyl)urea] | 52.8 | 28 | 38 | 21.2 | 23000 | >1 | > 1 | 22.6 | 5.4 | 15.5 | 29.7 | 31.8 | –
Cc1nccn1Cc1c(F)cc(-c2cc(CC(C)C)sc2S(=O)(=O)NC(=O)NCCO)cc1F [Example 5, 1-[[3-[3,5-Difluoro-4-[(2-methylimidazol-1-yl)methyl]phenyl]-5-isobutyl-2-thienyl]sulfonyl]-3-(2-hydroxyethyl)urea] | 44.6 | 36.2 | 36.3 | -30.1 | 49000 | >1 | > 1 | 27.4 | 18.4 | 8 | 27.5 | 38 | –
Cc1nccn1Cc1ccc(-c2cc(CC(C)C)sc2S(=O)(=O)NC(=O)NCCO)cc1F [Example 1, 1-[[3-[3-Fluoro-4-[(2-methylimidazol-1-yl)methyl]phenyl]-5-isobutyl-2-thienyl]sulfonyl]-3-(2-hydroxyethyl)urea] | 7.2 | 35.2 | 5.3 | 6.5 | 24000 | >1 | > 1 | 6.2 | 5 | -26.3 | 12.4 | 5.5 | –
Cc1nccn1Cc1ccc(-c2cc(CC(C)C)sc2S(=O)(=O)NC(=O)NCCO)c(F)c1 [Example 4, 1-[[3-[2-Fluoro-4-[(2-methylimidazol-1-yl)methyl]phenyl]-5-isobutyl-2-thienyl]sulfonyl]-3-(2-hydroxyethyl)urea] | 24.5 | 10.4 | 7.6 | 29.6 | 34000 | – | – | 3.2 | 45.5 | -9.7 | 18.9 | 11.9 | –
Cc1nccn1Cc1ccc(-c2cc(CC(C)C)sc2S(=O)(=O)NC(=O)NCCCO)cc1F [Example 2, 1-[[3-[3-Fluoro-4-[(2-methylimidazol-1-yl)methyl]phenyl]-5-isobutyl-2-thienyl]sulfonyl]-3-(3-hydroxypropyl)urea] | 25.3 | 30.9 | 13.6 | 26.3 | 21000 | >1 | > 1 | 3.1 | 20 | -0.9 | 18.4 | 16.5 | –
